# Reference: patent US8431530B2, “Compositions and methods for treating aids or cancer by inhibiting the secretion of microparticles” (priority 2009, dated 2013)
# Assays:
# R7 in Jurkat cells [1] = assay: Electron microscopy of viral particle distribution; format: cell-based, HIV; conditions: R7 co-transfection, day 6 versus day 14
# Source text: (§1) FIG. 4A is a composite of diagrams showing ELISA analysis of p24 concentration in Jurkat cells (panel A), HEK293 cells (panel B), THP-1 Monocytes (panel C) and U937 monocytes (panel D). FIG. 4B is a composite of confocal microscope pictures showing blocking of p24 release in Jurkat cells by SMRwt peptide (panel A) but not by SMRrmt peptide (panel B). FIG. 4C is a composite of confocal and electron microscope pictures showing viral particle distribution in Jurkat cells at day 6 post-transfection with R7 and SMRwt peptide (panel A-1) or with R7 and SMRmt peptide (panel B-1). FIG. 4D is a composite of confocal and electron microscope pictures showing viral particle distribution in Jurkat cells at day 14 post-transfection with R7 and SMRwt peptide (panel A-2) or with R7 and SMRmt peptide (panel B-2), FIG. 4E is a composite of confocal and electron microscope pictures showing viral particle distribution in subcellular structures in Jurkat cells at day 6 post-transfection with R7 and SMRwt peptide (panel A-1) or with R7 and SMRmt peptide (panel B-1) in Jurkat cells and at day 14 post-transfection with R7 and SMRwt peptide (panel A-2) or with R7 and SMRmt peptide (panel B-2) in Jurkat cells.
# FIGS. 4C-4E are electron microscopic pictures showing Jurkat cells transfected with R7/SMRwt or […] at day 6 (FIG. 4C) and day 14 (FIG. 4D) post transfection. […]
# Jurkat cells = assay: Cellular toxicity assay, fluorescein diacetate and propidium iodide; format: cell-based; conditions: peptide alone by Chariot, 48 hours
# Source text: FIG. 12 is a composite of pictures showing the result of cellular toxicity assay for cells transfected with SMRwt or SMRmt peptide. Panels A-1 and B-1: Propidium iodide staining of cells transfected with SMRwt and SMRmt peptide, respectively. Panels A-2 and B-2: Fluorescein diacetate staining of cells transfected with SMRwt and SMRmt peptide, respectively. Panels A-3 and B-3: Phase microscope image of cells transfected with SMRwt and SMRmt peptide, respectively.
# SMRwt or SMRmut (negative control) peptide alone were transfected into Jurkat cells using Chariot. The transfected cells were allowed to grow for 48 hours. The cells were assayed by Fluorescein diacetate (FD; taken up by live cells and converted to FITC making cells fluoresce green) and propidium iodide (PI; diffuse across porous membranes of dying cells fluoresing red inside those cells) for cytotoxicity.
# R7; Magi/CXCR4 cells = assay: Magi assay of viral infectivity, supernatants of THP-1 monocytes; format: cell-based, HIV; conditions: supernatant from transfected THP-1 monocytes
# Method: Magi/CXCR4 cells were exposed to 48 hour conditioned supernatants from Jurkat cells, HEK293 cells, THP-1 monocytes, or U937 monocytes transfected with either R7 viral DNA/SMRwt peptide or R7 viral DNA/SMRmt peptide. These cells were then fixed and stained with X-Gal. […] Cells productively infected with R7 are easily visualized under light microscopy by their blue nuclear staining. Magnification ×20. […] This is indicative of virus in the conditioned supernatant from the R7/negative control peptide treated cells and no virus in conditioned supernatant from the R7/antagonist treated cells.
# These Magi cultures were quantitated for blue staining cells. The data was plotted as a function of time post-transfection. […] This is possibly due to antagonism of trafficking of viral component(s) to the cytoplasmic membrane. Ultimately this would shutdown the HIV infection and block progression to AIDS.
# [2] = test system: HIV-1wtNef-GFP vesicle secretion in Jurkat cells; assay: Nef-GFP co-transfection secretion assay; format: cell-based; conditions: 500 ng HIV-1wtNef-GFP + 7.8-500 ng peptide, Chariot
# Method: In another experiment, Jurkat cells were co-transfected with 500 ng HIV-1wtNef-GFP and 7.8-500 ng of SMRwt peptide by Chariot. As shown in FIG. 3A the SMRwt peptide inhibits the vesicle secretion in Jurkat cells.
# R7 in U937 monocytes = assay: p24 ELISA of supernatant after R7 co-transfection; format: cell-based, HIV; conditions: up to 36 days
# Method: Jurkat cells, HEK293 cells, THP-1 monocytes and U937 monocytes were co-transfected with either R7 […] Nef SMR wt (antagonist) or with R7+Nef SMR mt (nonfunctional antagonist) by Chariot™ Kit. The transfection efficiency was 30-40%.
# R7 is a clone containing the viral genome. Transfection into cells allows expression of the viral genome and ultimately virion formation and release. The amount of virion production in the extracellular supernatant is measured through p24 protein (viral protein).
# At 2 hours, 3 days, 6 days, 9 days, 13 days, 15 days, 17 days, 20 days, 23 days, 27 days and 36 days post-transfection, 0.5 ml supernatant were collected from each plate, mixed with 0.5 ml fresh media and analyzed by p24 ELISA assay. 1.5 ml of supernatant were collected from each plate and spun in a TLA100 rotor at 400,000×g for 1 hour to create the pellets. The pellets were used for Western blot analysis with p24 mAb and Nef mAb.
# R7 in Jurkat cells [3] = assay: Confocal microscopy of p24 in R7 transfected cells; format: cell-based, HIV; conditions: day 3, 6, 10, 14, 17 after transfection with R7, accumulation in cytoplasm day 3, 6, 10
# Source text: as §1
# The effect of SMRwt, however, seems to be temporary. It appears that Jurkat and HEK cells can degrade the peptide over time, while U937 monocytes cannot degrade the peptide. […]
substance,measurement,setting,value
H-VGFPVAAVGFPVDYKDDDDK-OH [SMRwt],release of virus as measured by EM,R7 in Jurkat cells [1],delays release of virus from infected cells
same,dying cells (propidium iodide),Jurkat cells,< 2%
same,cytotoxicity (in words),Jurkat cells; FD/PI,very little or no cytotoxicity
same,numbers of infected Magi cells as a function of time post-transfection,R7; Magi/CXCR4 cells,significantly reduced
same,vesicle secretion (Nef-GFP),[2],inhibits the vesicle secretion in Jurkat cells in a dose-dependent manner
same,p24 in supernatant,R7 in U937 monocytes,little p24
same,p24 release (confocal microscopy),R7 in Jurkat cells [3],blockage of p24 release
